ChEMBL document CHEMBL5346961, “Discovery and Evaluation of 3-Quinoxalin Urea Derivatives as Potent, Selective, and Orally Available ATM Inhibitors Combined with Chemotherapy for the Treatment of Cancer via Goal-Oriented Molecule Generation and Virtual Screening” (J Med Chem, 2023)
Calls of active or inactive are those of the source. No cut-off for these calls is given here.

What was measured:
[1] = tested on: HCT-116; assay: Induction of DNA damage in human HCT-116 cells assessed as upregulation of ATM phosphorylation at S1981 residue at 25 uM measured after 4 hrs by Western blot analysis; type: functional, cell-based
[2] = tested on: SW-620; assay: Inhibition of colony formation in human SW620 cells measured after 1 week by crystal violet staining based […] assay; type: functional, cell-based; settings: SW-620, 168 h
[3] = Toxicity in BALB/c nude mouse assessed as reduction in body weight at 40 mg/kg, ip administered once weekly for 21 days relative to control; type: organism-based; set-up: scale not given: the % may be the effect or the level left; settings: in vivo, 504 h, time 21 day
[4] = tested on: HCT-116; assay: Induction of apoptosis in human HCT-116 cells assessed as viable cells at 5 uM measured after 2 days by AnnexinV-FITC/PI staining based analysis (reference value: 72.8%); type: functional; settings: HCT-116, 48 h, time 2 day, read-out: Activity
[5] = tested on: MCF7; assay: cells; settings: Homo sapiens, MCF7, 144 h
[6] = tested on: HCT-116; assay: Induction of apoptosis in human HCT-116 cells assessed as early apoptotic cells at 5 uM measured after 2 days by AnnexinV-FITC/PI staining based analysis (reference value: 14.4%); type: functional; settings: time 2 day
[7] = tested on: HCT-116; assay: Induction of DNA damage in human HCT-116 cells assessed as upregulation of gammaH2AX at 25 uM measured after 4 hrs by Western blot analysis; type: functional, cell-based
[8] = tested on: SW-620; assay: Antiproliferative activity against human SW620 cells assessed as reduction in cell viability measured after 6 days by MTT assay; type: functional, cell-based; settings: SW-620, 144 h
[9] = tested on: HCT-116; assay: Induction of apoptosis in human HCT-116 cells assessed as necrotic cells at 5 uM measured after 2 days by AnnexinV-FITC/PI staining based analysis (reference value: 0.64%); type: functional; settings: time 2 day
[10] = tested on: SW-620; assay: Antitumor activity against human SW620 cells xenografted in BALB/c nude mouse model assessed as tumor growth inhibition at 40 mg/kg, ip administered once weekly for 21 days by caliper method relative to control; type: functional; settings: SW-620, 504 h, time 21 day, read-out: TGI
[11] = tested on: HCT-116; assay: Induction of DNA damage in human HCT-116 cells assessed as upregulation of p21 at T145 residue at 25 uM measured after 4 hrs by Western blot analysis; type: functional, cell-based
[12] = tested on: HCT-116; assay: Induction of apoptosis in human HCT-116 cells assessed as late apoptotic cells at 5 uM measured after 2 days by AnnexinV-FITC/PI staining based analysis (reference value: 12.2%); type: functional; settings: time 2 day
[13] = tested on: MCF7; assay: Synergistic antiproliferative activity against human MCF7 cells assessed as combination index at […] measured after 6 days in presence irinotecan by MTT assay; type: functional; settings: dose lower 100 µM; time 6 day
[14] = tested on: HCT-116; assay: Antiproliferative activity against human HCT-116 cells assessed as cell survival at 1 uM incubated for 6 days by MTT assay relative to control; type: functional; settings: HCT-116, 144 h, time 6 day, read-out: Survival
[15] = Metabolic stability in human liver microsomes assessed as half life at 1 uM in presence of NADPH-regenerating system by LC-MS/MS analysis; type: ADME, Microsome
[16] = tested on: HCT-116; assay: Inhibition of colony formation in human HCT-116 cells preincubated for 1 hr followed by exposure to 2 Gy gamma irradiation and measured after 1 week by crystal violet staining based […] assay; type: functional, cell-based; settings: HCT-116, light or radiation study
[17] = tested on: SW-620; assay: Antiproliferative activity against human SW620 cells assessed as reduction in cell viability incubated for 6 days by MTT assay; type: functional, cell-based; settings: SW-620, 144 h
[18] = biological target: T1, Serine-protein kinase ATM (Homo sapiens, UniProt Q13315); assay: Inhibition of ATM (unknown origin) preincubated with compound for 30 mins followed by substrate addition and measured after 2 hrs by HTRF method
T1 sequence (Q13315 whole entry): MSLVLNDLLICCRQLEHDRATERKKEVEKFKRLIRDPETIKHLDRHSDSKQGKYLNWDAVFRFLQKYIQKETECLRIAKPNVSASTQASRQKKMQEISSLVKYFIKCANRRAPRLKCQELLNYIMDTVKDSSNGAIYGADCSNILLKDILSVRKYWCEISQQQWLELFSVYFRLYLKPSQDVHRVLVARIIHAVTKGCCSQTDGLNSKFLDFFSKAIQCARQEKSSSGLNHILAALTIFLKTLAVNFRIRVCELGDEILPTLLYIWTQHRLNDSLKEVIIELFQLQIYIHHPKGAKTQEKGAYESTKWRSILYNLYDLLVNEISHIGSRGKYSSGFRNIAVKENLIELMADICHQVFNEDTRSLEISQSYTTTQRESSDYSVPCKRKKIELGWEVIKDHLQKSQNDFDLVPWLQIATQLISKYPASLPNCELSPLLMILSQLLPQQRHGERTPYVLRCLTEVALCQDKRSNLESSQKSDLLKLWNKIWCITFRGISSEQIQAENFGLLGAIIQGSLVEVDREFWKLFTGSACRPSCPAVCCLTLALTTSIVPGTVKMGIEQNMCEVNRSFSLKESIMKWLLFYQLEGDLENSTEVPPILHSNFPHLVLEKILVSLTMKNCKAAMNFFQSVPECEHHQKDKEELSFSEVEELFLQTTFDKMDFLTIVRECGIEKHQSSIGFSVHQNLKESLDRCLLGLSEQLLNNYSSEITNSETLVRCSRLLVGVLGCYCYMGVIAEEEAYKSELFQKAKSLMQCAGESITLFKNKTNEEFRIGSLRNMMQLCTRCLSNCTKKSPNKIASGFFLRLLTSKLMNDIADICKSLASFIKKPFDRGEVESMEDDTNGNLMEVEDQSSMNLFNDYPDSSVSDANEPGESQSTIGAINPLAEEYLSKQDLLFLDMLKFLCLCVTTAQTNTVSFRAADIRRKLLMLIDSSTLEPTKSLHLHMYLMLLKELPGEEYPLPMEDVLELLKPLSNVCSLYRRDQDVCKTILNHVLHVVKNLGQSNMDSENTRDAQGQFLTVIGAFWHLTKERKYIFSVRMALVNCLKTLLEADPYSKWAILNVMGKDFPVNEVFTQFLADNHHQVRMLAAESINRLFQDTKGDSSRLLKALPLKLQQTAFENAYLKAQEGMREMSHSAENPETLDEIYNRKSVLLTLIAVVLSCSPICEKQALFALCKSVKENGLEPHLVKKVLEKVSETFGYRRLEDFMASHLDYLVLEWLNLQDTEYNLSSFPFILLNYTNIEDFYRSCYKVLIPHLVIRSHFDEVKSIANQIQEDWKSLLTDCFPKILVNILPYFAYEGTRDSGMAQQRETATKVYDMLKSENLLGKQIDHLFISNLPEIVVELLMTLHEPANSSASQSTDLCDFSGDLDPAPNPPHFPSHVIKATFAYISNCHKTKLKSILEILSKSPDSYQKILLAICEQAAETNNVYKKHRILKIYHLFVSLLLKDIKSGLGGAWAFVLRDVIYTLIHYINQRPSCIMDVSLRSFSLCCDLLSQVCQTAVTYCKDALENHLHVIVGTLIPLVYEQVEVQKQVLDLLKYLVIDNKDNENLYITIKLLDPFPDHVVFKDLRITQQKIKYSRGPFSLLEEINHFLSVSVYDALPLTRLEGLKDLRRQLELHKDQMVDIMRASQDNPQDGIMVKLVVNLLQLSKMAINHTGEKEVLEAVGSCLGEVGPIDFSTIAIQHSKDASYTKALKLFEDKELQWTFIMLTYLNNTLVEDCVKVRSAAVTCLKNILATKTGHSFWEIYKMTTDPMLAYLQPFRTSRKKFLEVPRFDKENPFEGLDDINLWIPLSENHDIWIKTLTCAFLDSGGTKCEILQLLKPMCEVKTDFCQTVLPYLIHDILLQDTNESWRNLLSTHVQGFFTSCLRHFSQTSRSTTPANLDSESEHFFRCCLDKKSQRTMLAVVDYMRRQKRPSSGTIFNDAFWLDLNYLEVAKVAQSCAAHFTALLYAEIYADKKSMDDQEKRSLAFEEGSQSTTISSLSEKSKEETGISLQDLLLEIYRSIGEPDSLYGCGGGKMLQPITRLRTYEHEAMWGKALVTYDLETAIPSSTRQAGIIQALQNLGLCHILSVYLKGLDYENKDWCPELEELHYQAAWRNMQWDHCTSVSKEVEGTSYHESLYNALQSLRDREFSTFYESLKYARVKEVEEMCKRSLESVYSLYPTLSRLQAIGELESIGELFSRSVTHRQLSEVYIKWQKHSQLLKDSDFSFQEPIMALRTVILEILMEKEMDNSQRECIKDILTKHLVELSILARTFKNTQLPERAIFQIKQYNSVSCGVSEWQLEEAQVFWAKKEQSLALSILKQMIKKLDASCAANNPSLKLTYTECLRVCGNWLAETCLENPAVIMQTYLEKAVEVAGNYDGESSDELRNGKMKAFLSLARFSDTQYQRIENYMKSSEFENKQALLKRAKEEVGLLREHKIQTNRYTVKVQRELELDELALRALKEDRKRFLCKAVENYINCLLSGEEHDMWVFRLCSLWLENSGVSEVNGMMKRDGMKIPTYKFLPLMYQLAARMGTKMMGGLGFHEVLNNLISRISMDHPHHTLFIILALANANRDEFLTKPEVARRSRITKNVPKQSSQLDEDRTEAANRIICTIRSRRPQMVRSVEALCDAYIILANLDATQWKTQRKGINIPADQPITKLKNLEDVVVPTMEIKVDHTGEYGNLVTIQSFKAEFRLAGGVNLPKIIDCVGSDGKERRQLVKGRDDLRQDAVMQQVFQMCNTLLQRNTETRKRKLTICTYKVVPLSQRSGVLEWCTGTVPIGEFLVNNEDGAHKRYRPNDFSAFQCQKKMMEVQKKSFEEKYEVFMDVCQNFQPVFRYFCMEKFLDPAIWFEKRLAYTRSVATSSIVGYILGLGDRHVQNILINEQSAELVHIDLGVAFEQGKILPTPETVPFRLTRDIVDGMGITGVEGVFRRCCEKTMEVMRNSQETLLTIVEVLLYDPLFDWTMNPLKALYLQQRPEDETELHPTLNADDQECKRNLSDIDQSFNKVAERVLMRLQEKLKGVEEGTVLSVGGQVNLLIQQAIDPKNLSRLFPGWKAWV

[19] = tested on: MCF7; assay: Synergistic antiproliferative activity against human MCF7 cells assessed as fold increase in etoposide IC50 at 200 nM measured after 6 days by MTT assay; type: functional; settings: time 6 day
[20] = tested on: HCT-116; assay: Inhibition of colony formation in human HCT-116 cells at 0.01 uM preincubated for 1 hr followed by exposure to 2 Gy gamma irradiation and measured after 1 week by crystal violet staining based […] assay relative to control; type: functional; settings: HCT-116, light or radiation study, time 169 hrs
[21] = tested on: MCF7; assay: Synergistic antiproliferative activity against human MCF7 cells assessed as fold increase in irinotecan IC50 at 200 nM measured after 6 days by MTT assay; type: functional; settings: time 6 day
[22] = Metabolic stability in human liver microsomes assessed as clearance at 1 uM in presence of NADPH-regenerating system by LC-MS/MS analysis; type: ADME, Microsome
[23] = tested on: HCT-116; assay: Inhibition of colony formation in human HCT-116 cells assessed as assessed as fold change in IC50 in presence of ionizing radiation; type: functional
[24] = tested on: MCF7; assay: Antiproliferative activity against human MCF7 cells assessed as reduction in cell viability incubated for 6 days by MTT assay; type: functional, cell-based; settings: MCF7, 144 h
[25] = tested on: MCF7; assay: Synergistic antiproliferative activity against human MCF7 cells assessed as combination index at […] measured after 6 days in presence etoposide by MTT assay; type: functional; settings: dose lower 100 µM; time 6 day
[26] = biological target: T1, Serine-protein kinase ATM; assay: Inhibition of ATM (unknown origin) assessed as remaining activity at 1 uM preincubated with compound for 30 mins followed by substrate addition and measured after 2 hrs by HTRF method relative to control; settings: time 2.5 hrs
[27] = biological target: T1, Serine-protein kinase ATM; assay: Inhibition of ATM (unknown origin) assessed as remaining activity at 0.01 uM preincubated with compound for 30 mins followed by substrate addition and measured after 2 hrs by HTRF method relative to control; settings: time 2.5 hrs
[28] = biological target: Serine/threonine-protein kinase ATR (Homo sapiens, UniProt Q13535); assay: Inhibition of ATR (unknown origin) assessed as remaining activity at 1 uM in presence of [gamma33P-ATP] by radiometric assay
[29] = Metabolic stability in human liver microsomes assessed as M1 metabolite formation at 1 uM in presence of NADPH-regenerating system by LC-MS/MS analysis; type: ADME, Microsome
[30] = biological target: Phosphatidylinositol 4,5-bisphosphate 3-kinase catalytic subunit alpha isoform (Homo sapiens, UniProt P42336); assay: Inhibition of PIK3alpha (unknown origin)
Chain of Phosphatidylinositol 4,5-bisphosphate 3-kinase catalytic subunit alpha isoform (P42336 whole entry, canonical isoform): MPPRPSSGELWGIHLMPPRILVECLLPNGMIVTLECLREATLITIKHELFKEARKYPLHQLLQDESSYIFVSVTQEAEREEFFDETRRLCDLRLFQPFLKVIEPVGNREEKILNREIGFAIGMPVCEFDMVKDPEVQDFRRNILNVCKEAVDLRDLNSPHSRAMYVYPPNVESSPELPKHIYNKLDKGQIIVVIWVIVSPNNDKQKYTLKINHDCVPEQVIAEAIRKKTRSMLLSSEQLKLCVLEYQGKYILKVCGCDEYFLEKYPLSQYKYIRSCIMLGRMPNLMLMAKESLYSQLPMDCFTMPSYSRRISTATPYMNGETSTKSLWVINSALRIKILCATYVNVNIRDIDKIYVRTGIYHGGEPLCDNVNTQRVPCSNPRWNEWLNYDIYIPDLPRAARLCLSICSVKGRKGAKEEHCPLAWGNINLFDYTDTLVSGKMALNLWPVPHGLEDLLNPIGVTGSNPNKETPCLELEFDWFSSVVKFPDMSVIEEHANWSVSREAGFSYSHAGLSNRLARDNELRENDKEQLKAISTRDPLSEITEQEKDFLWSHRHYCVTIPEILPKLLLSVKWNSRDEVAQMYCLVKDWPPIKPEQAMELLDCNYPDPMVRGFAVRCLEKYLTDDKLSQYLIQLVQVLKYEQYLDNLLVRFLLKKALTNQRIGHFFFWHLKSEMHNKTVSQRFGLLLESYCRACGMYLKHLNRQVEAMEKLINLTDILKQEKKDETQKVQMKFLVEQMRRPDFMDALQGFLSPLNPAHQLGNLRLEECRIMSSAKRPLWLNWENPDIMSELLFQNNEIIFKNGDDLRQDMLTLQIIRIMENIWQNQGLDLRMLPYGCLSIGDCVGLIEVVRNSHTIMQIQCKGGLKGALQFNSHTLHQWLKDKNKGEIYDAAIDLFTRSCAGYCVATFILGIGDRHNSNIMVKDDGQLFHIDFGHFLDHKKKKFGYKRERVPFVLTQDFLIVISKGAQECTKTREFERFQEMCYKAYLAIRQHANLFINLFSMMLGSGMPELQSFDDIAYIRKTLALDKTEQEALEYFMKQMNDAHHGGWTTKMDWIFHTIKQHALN

[31] = biological target: T1, Serine-protein kinase ATM; assay: Inhibition of flag tagged- ATM (unknown origin) expressed in Escherichia coli BL21 incubated for 20 mins in presence of ATP
[32] = biological target: DNA-dependent protein kinase catalytic subunit (Homo sapiens, UniProt P78527); assay: Inhibition of DNA-PK (unknown origin)

Compound | viability at 1 µM [14] [%] | half-life at 1 µM [15] [min] | IC50 [16] [nM] | IC50 [18] [nM] | inhibition at 0.01 µM [20] [%] | CLH [22] [mL/min/g] | Activity [27] [%] | Activity [28] [%] | further results
CCc1c2c(nc3ccc(OC(=O)N4CCC(N5CCCCC5)CC4)cc13)-c1cc3c(c(=O)n1C2)COC(=O)[C@]3(O)CC [IRINOTECAN] |  |  |  |  |  |  |  |  | Activity [1]: Active; IC50 [2]: 230 nM; Activity [3]: < 12%; viability at 5 µM [4]: 52.3%; IC50 [5]: 910 nM; Activity [6]: 26%; Activity [7]: inactive; IC50 [8]: 980 nM; Activity [9]: 1.7%; inhibition in vivo at 40 mg/kg [10]: 69.2%; Activity [11]: Active; Activity [12]: 19.9%
CC(C)NC(=O)N(C)c1cnc2ccc(-c3ccc(OCCCN4CCCC4)nc3)cc2n1 | > 83 | 267 | 1.76 | 1.75 | 83.8 | 5.2 |  |  | CI [13]: <1; IC50 [17]: > 9000 nM; fold change (FC) [19]: 3; fold change (FC) [21]: 13; fold change (FC) [23]: 8284; IC50 [24]: > 9000 nM; CI [25]: <1
CCN(CC)CCCOc1ccc(-c2ccc3ncc(N(C)C(=O)NC(C)C)nc3c2)cn1 | > 83 | 99 | 6.97 | 1 | 72.8 | 14 | 19 |  | Activity [26]: -3%
CC(C)NC(=O)N(C)c1cnc2ccc(-c3ccc(OCCCN(C)C)nc3)cc2n1 | > 83 | 35 | 8.94 | 2 | 58.4 | 40 | 14 | 105 | 
CN(C)CCCOc1ccc(-c2ccc3ncc(NC(=O)NC4CCCCC4)nc3c2)cn1 |  | 5 |  |  |  | 293 |  | 102 | Activity [26]: -5%; Drug metabolism [29]: Metabolite_Detected
CN(C)CCCOc1ccc(-c2ccc3ncc(N(C)C(=O)NC4CCCCC4)nc3c2)cn1 | > 83 | 15 | 0.54 | 0.9 | 99.6 | 94 | -1 | 94 | 
CC(C)(C#N)c1ccc(N2C(=O)OCc3cnc4ccc(-c5cnc6ccccc6c5)cc4c32)cc1 |  |  |  |  |  |  |  |  | IC50 [30]: 170 nM; IC50 [31]: 545 nM; IC50 [32]: 36 nM
